SMILES strings stand for the structures.

This experiment addresses T1, Full length human recombinant HDAC8 protein (Homo sapiens, UniProt Q9BY41).
T1 construct: Full length human recombinant HDAC8 protein was expressed in baculoviral system; made in house
T1 sequence (Q9BY41 1-377): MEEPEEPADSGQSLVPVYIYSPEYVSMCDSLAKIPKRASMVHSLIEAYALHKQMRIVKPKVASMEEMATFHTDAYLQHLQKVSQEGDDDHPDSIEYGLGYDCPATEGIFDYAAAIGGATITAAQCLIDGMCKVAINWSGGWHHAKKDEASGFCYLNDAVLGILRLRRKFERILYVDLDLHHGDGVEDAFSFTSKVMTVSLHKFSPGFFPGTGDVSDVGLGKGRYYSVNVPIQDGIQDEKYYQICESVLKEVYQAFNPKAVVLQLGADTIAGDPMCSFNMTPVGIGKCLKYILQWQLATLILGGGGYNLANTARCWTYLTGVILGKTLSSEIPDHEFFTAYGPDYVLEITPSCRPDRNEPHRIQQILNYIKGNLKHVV
In words: In vitro histone deacetylase assay: enzymatic HDAC8 electrophoretic mobility shift assay. In kind it is biochemical. The conditions noted are these: electrophoretic mobility shift assay; enzyme 1 nM; 2 μM fluorescently labeled peptide substrate RHKK(Ac)-NH2; 25° C.; 12 concentrations; read-out: HDAC8 IC50. (In general: Mobility shift assays separate free from complexed probe on a gel.)
The term IC50 denotes the concentration at which inhibition is half-maximal. `O=C(NO)c1ccc2c(c1)N(S(=O)(=O)c1ccccc1)CCO2` [Compound I-86, N-hydroxy-4-(phenylsulfonyl)-3,4-dihydro-2H-benzo[b][1,4]oxazine-6-carboxamide]: the 50% inhibitory concentration (IC50) lay within 100 to 1000 nM. In the case of `COc1ccc(S(=O)(=O)N2CCOc3ccc(C(=O)NO)cc32)cc1` [Compound I-87, N-hydroxy-4-((4-methoxyphenyl)sulfonyl)-3,4-dihydro-2H-benzo[b][1,4]oxazine-6-carboxamide], the IC50 lay in the range of 100 to 1000 nM. Turning to `O=C(NO)c1ccc2c(c1)N(Cc1ccc(S(=O)(=O)C(F)F)cc1)C(=O)CO2` [Compound I-88, 4-(4-((difluoromethyl)sulfonyl)benzyl)-N-hydroxy-3-oxo-3,4-dihydro-2H-benzo[b][1,4]oxazine-6-carboxamide], the half-inhibitory concentration (IC50) was below 25 nM.

On to `COc1ccc(CN2C(=O)COc3cc(C(=O)NO)ccc32)cc1` [Compound I-89, N-hydroxy-4-(4-methoxybenzyl)-3-oxo-3,4-dihydro-2H-benzo[b][1,4]oxazine-7-carboxamide], for which the half-inhibitory concentration (IC50) is 100 to 1000 nM.

`CS(=O)(=O)c1ccc(CN2C(=O)COc3cc(C(=O)NO)ccc32)cc1` [Compound I-90, N-hydroxy-4-(4-(methylsulfonyl)benzyl)-3-oxo-3,4-dihydro-2H-benzo[b][1,4]oxazine-7-carboxamide]: the half-maximal inhibitory concentration (IC50) lay in the range of 100 to 1000 nM. Consider `COc1ccc(CN2C(=O)C(C)Oc3cc(C(=O)NO)ccc32)cc1` (stereo not shown) [Compound I-91, N-hydroxy-4-(4-methoxybenzyl)-2-methyl-3-oxo-3,4-dihydro-2H-benzo[b][1,4]oxazine-7-carboxamide], for which the IC50 was 100 to 1000 nM. For `CC1Oc2cc(C(=O)NO)ccc2N(Cc2ccc(S(C)(=O)=O)cc2)C1=O` (stereo not shown) [Compound I-92, N-hydroxy-2-methyl-4-(4-(methylsulfonyl)benzyl)-3-oxo-3,4-dihydro-2H-benzo[b][1,4]oxazine-7-carboxamide] the value was 100 to 1000 nM; for `CS(=O)(=O)c1ccc(CN2C(=O)COc3ccc(C(=O)NO)cc32)c(Cl)c1` [Compound I-93, 4-(2-chloro-4-(methylsulfonyl)benzyl)-N-hydroxy-3-oxo-3,4-dihydro-2H-benzo[b][1,4]oxazine-6-carboxamide], below 25 nM; for `CC(c1ccccc1F)N1C(=O)COc2ccc(C(=O)NO)cc21` (stereo not shown) [Compound I-95, 4-(1-(2-fluorophenyl)ethyl)-N-hydroxy-3-oxo-3,4-dihydro-2H-benzo[b][1,4]oxazine-6-carboxamide], 25 to 100 nM. As for `O=C(NO)c1ccc2c(c1)N(C(=O)N1CCCCC1)CCO2` [Compound I-97, N-hydroxy-4-(piperidine-1-carbonyl)-3,4-dihydro-2H-benzo[b][1,4]oxazine-6-carboxamide], the IC50 was above 1000 nM. In the case of `COc1ccc(CN2C(=O)C(CCN(C)C)Oc3ccc(C(=O)NO)cc32)cc1` (stereo not shown) [Compound I-105, 2-(2-(dimethylamino)ethyl)-N-hydroxy-4-(4-methoxybenzyl)-3-oxo-3,4-dihydro-2H-benzo[b][1,4]oxazine-6-carboxamide] it was 25 to 100 nM.

With `O=C(NO)c1ccc2c(c1)N(c1nc3ccccc3[nH]1)CCC2` [Compound I-106, 1-(1H-benzo[d]imidazol-2-yl)-N-hydroxy-1,2,3,4-tetrahydroquinoline-7-carboxamide], the IC50 fell in the range of 100 to 1000 nM.

`O=C(NO)c1ccc2c(c1)CCCN2c1nc2ccccc2[nH]1` [Compound I-107, 1-(1H-benzo[d]imidazol-2-yl)-N-hydroxy-1,2,3,4-tetrahydroquinoline-6-carboxamide]: the IC50 is above 1000 nM. For the compound `O=C(NO)c1ccc2c(c1)N(c1nc3ccccc3[nH]1)CCO2` [Compound I-108, 4-(1H-benzo[d]imidazol-2-yl)-N-hydroxy-3,4-dihydro-2H-benzo[b][1,4]oxazine-6-carboxamide], the IC50 is above 1000 nM. In the case of `O=C(NO)c1ccc2c(c1)OCCN2c1nc2ccccc2[nH]1` [Compound I-109, 4-(1H-benzo[d]imidazol-2-yl)-N-hydroxy-3,4-dihydro-2H-benzo[b][1,4]oxazine-7-carboxamide] it was above 1000 nM; in that of `COCCn1c(N2CCCc3ccc(C(=O)NO)cc32)nc2ccccc21` [Compound I-110, N-hydroxy-1-(1-(2-methoxyethyl)-1H-benzo[d]imidazol-2-yl)-1,2,3,4-tetrahydroquinoline-7-carboxamide], 100 to 1000 nM; in that of `COCCn1c(N2CCCc3cc(C(=O)NO)ccc32)nc2ccccc21` [Compound I-111, N-hydroxy-1-(1-(2-methoxyethyl)-1H-benzo[d]imidazol-2-yl)-1,2,3,4-tetrahydroquinoline-6-carboxamide], 100 to 1000 nM. For `COc1ccc(C(=O)N2CCCc3ccc(C(=O)NO)cc32)cc1` [Compound I-112, N-hydroxy-1-(4-methoxybenzoyl)-1,2,3,4-tetrahydroquinoline-7-carboxamide] the value was 100 to 1000 nM; for `COc1ccc(C(=O)N2CCOc3ccc(C(=O)NO)cc32)cc1` [Compound I-113, N-hydroxy-4-(4-methoxybenzoyl)-3,4-dihydro-2H-benzo[b][1,4]oxazine-6-carboxamide], above 1000 nM.

In the case of `O=C(NO)c1ccc2c(c1)N(C(=O)C1CCCCC1)CCO2` [Compound I-114, 4-(cyclohexanecarbonyl)-N-hydroxy-3,4-dihydro-2H-benzo[b][1,4]oxazine-6-carboxamide], the IC50 was in the range of 100 to 1000 nM.

On to `COc1ccc(CN2CCOc3ccc(C(=O)NO)cc32)cc1` [Compound I-115, N-hydroxy-4-(4-methoxybenzyl)-3,4-dihydro-2H-benzo[b][1,4]oxazine-6-carboxamide], for which the IC50 lay within 100 to 1000 nM. In the case of `Cc1ccc(CN2CCOc3ccc(C(=O)NO)cc32)cc1` [Compound I-117, N-hydroxy-4-(4-methylbenzyl)-3,4-dihydro-2H-benzo[b][1,4]oxazine-6-carboxamide] it was 100 to 1000 nM.

`O=C(NO)c1ccc2c(c1)N(Cc1ccc(Cl)cc1)CCO2` [Compound I-118, 4-(4-chlorobenzyl)-N-hydroxy-3,4-dihydro-2H-benzo[b][1,4]oxazine-6-carboxamide]: the IC50 was 25 to 100 nM. For `O=C(NO)c1ccc2c(c1)N(Cc1ccc(C(F)(F)F)cc1)CCO2` [Compound I-119, N-hydroxy-4-(4-(trifluoromethyl)benzyl)-3,4-dihydro-2H-benzo[b][1,4]oxazine-6-carboxamide] the value was 25 to 100 nM; for `CS(=O)(=O)c1ccc(CN2CCOc3ccc(C(=O)NO)cc32)cc1` [Compound I-120, N-hydroxy-4-(4-(methylsulfonyl)benzyl)-3,4-dihydro-2H-benzo[b][1,4]oxazine-6-carboxamide], 25 to 100 nM. In the case of `COc1cccc(CN2CCOc3ccc(C(=O)NO)cc32)c1` [Compound I-121, N-hydroxy-4-(3-methoxybenzyl)-3,4-dihydro-2H-benzo[b][1,4]oxazine-6-carboxamide] it was 25 to 100 nM; in that of `Cc1cccc(CN2CCOc3ccc(C(=O)NO)cc32)c1` [Compound I-122, N-hydroxy-4-(3-methylbenzyl)-3,4-dihydro-2H-benzo[b][1,4]oxazine-6-carboxamide], 25 to 100 nM; in that of `O=C(NO)c1ccc2c(c1)N(Cc1cccc(Cl)c1)CCO2` [Compound I-123, 4-(3-chlorobenzyl)-N-hydroxy-3,4-dihydro-2H-benzo[b][1,4]oxazine-6-carboxamide], 25 to 100 nM. For the compound `O=C(NO)c1ccc2c(c1)N(Cc1cccc(C(F)(F)F)c1)CCO2` [Compound I-124, N-hydroxy-4-(3-(trifluoromethyl)benzyl)-3,4-dihydro-2H-benzo[b][1,4]oxazine-6-carboxamide], the 50% inhibitory concentration (IC50) is below 25 nM. In the case of `COc1ccccc1CN1CCOc2ccc(C(=O)NO)cc21` [Compound I-126, N-hydroxy-4-(2-methoxybenzyl)-3,4-dihydro-2H-benzo[b][1,4]oxazine-6-carboxamide] it was 100 to 1000 nM; in that of `Cc1ccccc1CN1CCOc2ccc(C(=O)NO)cc21` [Compound I-127, N-hydroxy-4-(2-methylbenzyl)-3,4-dihydro-2H-benzo[b][1,4]oxazine-6-carboxamide], 25 to 100 nM. In the case of `O=C(NO)c1ccc2c(c1)N(Cc1ccccc1Cl)CCO2` [Compound I-128, 4-(2-chlorobenzyl)-N-hydroxy-3,4-dihydro-2H-benzo[b][1,4]oxazine-6-carboxamide] it was below 25 nM; in that of `O=C(NO)c1ccc2c(c1)N(Cc1ccccc1C(F)(F)F)CCO2` [Compound I-129, N-hydroxy-4-(2-(trifluoromethyl)benzyl)-3,4-dihydro-2H-benzo[b][1,4]oxazine-6-carboxamide], 100 to 1000 nM.

Take `CS(=O)(=O)c1ccccc1CN1CCOc2ccc(C(=O)NO)cc21` [Compound I-130, N-hydroxy-4-(2-(methylsulfonyl)benzyl)-3,4-dihydro-2H-benzo[b][1,4]oxazine-6-carboxamide]: the IC50 is 100 to 1000 nM. For `O=C(NO)c1ccc2c(c1)N(Cc1ccccc1OC(F)F)CCO2` [Compound I-131, 4-(2-(difluoromethoxy)benzyl)-N-hydroxy-3,4-dihydro-2H-benzo[b][1,4]oxazine-6-carboxamide] the value was 25 to 100 nM. In the case of `O=C(NO)c1ccc2c(c1)N(Cc1cccc(OC(F)F)c1)CCO2` [Compound I-132, 4-(3-(difluoromethoxy)benzyl)-N-hydroxy-3,4-dihydro-2H-benzo[b][1,4]oxazine-6-carboxamide] it was below 25 nM; in that of `O=C(NO)c1ccc2c(c1)N(CC1CCCCC1)CCO2` [Compound I-133, 4-(cyclohexylmethyl)-N-hydroxy-3,4-dihydro-2H-benzo[b][1,4]oxazine-6-carboxamide], 25 to 100 nM.

The values are drawn from patent US10370343B2, “[6,6] Fused bicyclic HDAC8 inhibitors” (FORMA Therapeutics, Inc., priority 2015, dated 2019).
